Tests used:
[1] = Comparative stability test (solid kept at 80° C. for three days, light-shaded and airtight; remaining substance by HPLC); assay type: physicochemical; details: for Remaining ratio(%) after 3 days at 80° C.: 10 mg solid sample, thermostat at 80° C., three days, light-shaded and airtight, HPLC; for storage stability (result in words): left at 80° C. for three days
Description: The crystalline Na salt of the invention (described in Example 9) was subjected to a comparative stability test. In the test, the Na salt was left at 80° C. for three days together with both the substance obtained by condensing the solution to dryness and the product collected by filtration and left at room temperature after recrystallization.
The crystalline K salt of the invention (described in Example 11) was subjected to a stability test in which the K salt was left at 80° C. for three days.
mobile phase: a mixture of 0.1 mol/L sodium dihydrogen phosphate reagent (pH: 3.0)/acetonitrile (5:2),
flow rate; controlled so that the retention time of (2S,3S)-3-[[(1S)-1-isobutoxymethyl-3-methylbutyl]-carbamoyl]oxirane-2-carboxylic acid would be approx. 13 minutes, and
As a sample, 10 mg of sodium or potassium (2S,3S)-3-[[(1S)-1-isobutoxymethyl-3-methylbutyl]carbamoyl]oxirane-2-carboxylate was weighed and placed in a test tube. After the sample was kept in a thermostat at 80° C. for three days under a light-shaded and airtight condition, the amount of remaining substance was measured by HPLC.
The same as those in Example 14.

[2] = tested on: cathepsin; details: background statement; cited from earlier work

Compound	Remaining ratio(%) after 3 days at 80° C. [1]	storage stability (result in words) [1]	cathepsin-inhibitory action [2]
CC(C)COC[C@H](CC(C)C)NC(=O)[C@H]1O[C@@H]1C(=O)[O-].[Na+] [Na salt (obtained in Example 9), sodium (2S,3S)-3-[[(1S)-1-isobutoxymethyl-3-methylbutyl]carbamoyl]oxirane-2-carboxylate]	95-98%	superior to the substances for comparison in storage stability	
CC(C)COC[C@H](CC(C)C)NC(=O)[C@H]1O[C@@H]1C(=O)[O-].[Na+] [Na salt (obtained according to the conventional process)] [sodium (2S,3S)-3-[[(1S)-1-isobutoxymethyl-3-methylbutyl]carbamoyl]oxirane-2-carboxylate, reference compound]	13-77%		
CC(C)COC[C@H](CC(C)C)NC(=O)[C@H]1O[C@@H]1C(=O)[O-].[Na+] [Na salt (obtained through recrystallization and drying in ai] [sodium (2S,3S)-3-[[(1S)-1-isobutoxymethyl-3-methylbutyl]carbamoyl]oxirane-2-carboxylate, reference compound]	38-77%		
CC(C)COC[C@H](CC(C)C)NC(=O)[C@H]1O[C@@H]1C(=O)[O-].[K+] [K salt (obtained in Example 11), potassium (2S,3S)-3-[[(1S)-1-isobutoxymethyl-3-methylbutyl]carbamoyl]oxirane-2-carboxylate]	99.9%	excellent in storage stability	
CC(C)COC[C@H](CC(C)C)NC(=O)[C@H]1O[C@@H]1C(=O)[O-].[Na+] [Compound A, sodium (2S,3S)-3-[[(1S)-1-isobutoxymethyl-3-methylbutyl]carbamoyl]-oxirane-2-carboxylate]			shows a cathepsin-inhibitory action

— patent publication US7795458B2, “Salt of (2S, 3S)-3-[[(1S)-1-isobutoxymethyl-3-methylbutyl] carbamoyl] oxirane-2-carboxylic acid” (Nippon Chemiphar Co., Ltd, priority 2003, dated 2010)
